Measured values: patent US20250170072A1, “NOVEL COMPOSITIONS FOR REDUCING METHANE PRODUCTION IN RUMINANT ANIMALS” (FUTUREFEED PTY LTD, priority 2022, published 2025)
Where two headings read alike, the source gives them in different places.

Experiments:
in vitro fermentation = conditions: doses of 0.25, 1 and 1.5% of feed dry matter; cited from earlier work
rumen fluid = conditions: formulated in DMSO, cited from earlier work
[1] = at 20 degrees; cited from earlier work
Bromoform in water = assay type: physicochemical; conditions: deionised water
Protocol: Manufactured synthetic CHBr3, 98% purity, and stabilized with 2-methyl-2-butene (Sigma-Aldrich, product no: 241032) was used for the preparation of the four excipients. The Corn Oil, Molasses and Water were made with similar protocols as per the Canola Oil in Example 4. Briefly, CHBr3 was dissolved and homogenised into either retail corn oil, molasses, or deionised water and homogenised by repeated inversion and left to stabilise overnight prior to achieve a concentration of 3.0±0.10 mg/g. Cyclodextrin was prepared as described previously (patent WO 96/14062, PCT AU95/00733). Briefly, CHBr3 was added to α-cyclodextrin (Sigma-Aldrich, product no: 779008) aqueous solution and mixed overnight. The solid was then separated, washed, then dried. The CHBr3 concentration of the dried powder was determined and then diluted with additional α-cyclodextrin to adjust the CHBr3 concentration to 3.0±0.10 mg/g. TGP, CH4, H2 and CO2 production, IVDDM, and VFA were determined using the protocol as described in Example 4.

## BrC(Br)Br [bromoform, tribromomethane]
In vitro fermentation
  methane production: no effect
Rumen fluid; 1 μM
  methane production in in vitro fermentation: does not significantly inhibit
Rumen fluid; doses of 5 μM, 10 μM and 25 μM
  methane production in in vitro fermentation: significantly inhibits
[1]
  solubility in water: less than 0.1 g bromofrm per 100 g water
Bromoform in water
  concentration of bromoform prepared in water: 3.0±0.10 mg bromoform per gram deionised water
